Experimental data from patent publication US12180187B2, “1-phenyl-5-azinylpyrazolyl-3-oxyalkyl acids and their use for controlling unwanted plant growth” (BAYER AKTIENGESELLSCHAFT, priority 2019, dated 2024).

Tests used:
[1] = test system: LOLRI; test: Pre-emergence action against LOLRI, 1280 g/ha; type: in vivo, Lolium rigidum; details: visual scoring after about 3 weeks vs untreated controls, 100% = plants have died, 0% = like control plants
Outline: (§1)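 Soil-surface application after sowing, before emergence: WP or EC formulations in water with 0.5% additive, 600 litres per hectare, onto sandy loam pots. Damage rated visually in % relative to untreated plants after roughly 3 weeks in a greenhouse.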

[2] = test system: AMARE; test: Pre-emergence action against AMARE, 1280 g/ha; type: in vivo, Amaranthus retroflexus; details: scored visually after about 3 weeks vs untreated controls (100% = plants have died)
Outline: as §1

[3] = test system: POLCO; test: Pre-emergence action at 320 g/ha against POLCO; type: in vivo, Fallopia convolvulus (Polygonum convolvulus); details: visual scoring after about 3 weeks vs untreated controls
Outline: (§2)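 Weed seeds sown in pots and covered with soil; compounds formulated as WP or EC were sprayed onto the soil surface as aqueous suspension or emulsion with 0.5% additive at 600 l/ha water. Pots kept in greenhouse; activity scored visually after about 3 weeks versus untreated controls (100% = plants dead, 0% = like control).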

[4] = test system: SETVI; test: Pre-emergence action against SETVI, 1280 g/ha; type: in vivo, Setaria viridis; details: visual scoring after about 3 weeks vs untreated controls, 100% = plants have died, 0% = like control plants
Outline: as §1

[5] = test system: MATIN; test: Pre-emergence action against MATIN, 1280 g/ha; type: in vivo, Tripleurospermum inodorum (Matricaria inodora); details: scored visually after about 3 weeks vs untreated controls (100% = plants have died)
Outline: as §1

[6] = test system: LOLRI; test: Post-emergence action against LOLRI, 1.28 kg/ha; type: in vivo, Lolium rigidum; details: dosage 1280 g/ha, visual rating about 3 weeks after treatment vs untreated controls
Outline: (§3)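 Greenhouse pot test, sandy loam; weeds sprayed post-emergence at one-leaf stage (2–3 weeks after sowing) with WP or EC formulation plus 0.5% additive, 600 l/ha water. Visual rating after about 3 weeks versus untreated controls, 100% = plants dead, 0% = like control.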

[7] = test system: MATIN; test: Post-emergence action against MATIN, 1.28 kg/ha; type: in vivo, Tripleurospermum inodorum (Matricaria inodora); details: dosage 1280 g/ha, visual rating about 3 weeks after treatment vs untreated controls (100% = plants died)
Outline: as §3

[8] = test system: SETVI; test: Post-emergence action against SETVI, 1.28 kg/ha; type: in vivo, Setaria viridis; details: dosage 1280 g/ha, visual rating about 3 weeks after treatment vs untreated controls
Outline: as §3

[9] = test system: ALOMY; test: Pre-emergence action against ALOMY, 1280 g/ha; type: in vivo, Alopecurus myosuroides; details: visual scoring after about 3 weeks vs untreated controls, 100% = plants have died, 0% = like control plants
Outline: as §1

[10] = test system: AMARE; test: Post-emergence action against AMARE, 1.28 kg/ha; type: in vivo, Amaranthus retroflexus; details: dosage 1280 g/ha, visual rating about 3 weeks after treatment vs untreated controls (100% = plants died)
Outline: as §3

[11] = test system: ALOMY; test: Post-emergence action against ALOMY, 1.28 kg/ha; type: in vivo, Alopecurus myosuroides; details: dosage 1280 g/ha, visual rating about 3 weeks after treatment vs untreated controls
Outline: as §3

[12] = test system: ALOMY; test: Pre-emergence action at 320 g/ha against ALOMY; type: in vivo, Alopecurus myosuroides; details: scored visually after about 3 weeks vs untreated controls (100% = plants have died)
Outline: as §2

[13] = test system: ECHCG; test: Post-emergence action against ECHCG, 1.28 kg/ha; type: in vivo, Echinochloa crus-galli; details: dosage 1280 g/ha, visual rating about 3 weeks after treatment vs untreated controls
Outline: as §3

[14] = test system: VERPE; test: Post-emergence action against VERPE, 1.28 kg/ha; type: in vivo, Veronica persica; details: dosage 1280 g/ha, visual rating about 3 weeks after treatment vs untreated controls (100% = plants died)
Outline: as §3

[15] = test system: AMARE; test: Pre-emergence action at 320 g/ha against AMARE; type: in vivo, Amaranthus retroflexus; details: visual scoring after about 3 weeks vs untreated controls
Outline: as §2

[16] = test system: VERPE; test: Pre-emergence action at 320 g/ha against VERPE; type: in vivo, Veronica persica; details: visual scoring after about 3 weeks vs untreated controls
Outline: as §2

[17] = test system: POAAN; test: Post-emergence action against POAAN, 1.28 kg/ha; type: in vivo, Poa annua; details: dosage 1280 g/ha, visual rating about 3 weeks after treatment vs untreated controls
Outline: as §3

[18] = test system: VERPE; test: Pre-emergence action against VERPE, 1280 g/ha; type: in vivo, Veronica persica; details: scored visually after about 3 weeks vs untreated controls (100% = plants have died)
Outline: as §1

[19] = test system: DIGSA; test: Post-emergence action against DIGSA, 1.28 kg/ha; type: in vivo, Digitaria sanguinalis; details: dosage 1280 g/ha, visual rating about 3 weeks after treatment vs untreated controls
Outline: as §3

[20] = test system: POAAN; test: Pre-emergence action against POAAN, 1280 g/ha; type: in vivo, Poa annua; details: visual scoring after about 3 weeks vs untreated controls, 100% = plants have died, 0% = like control plants
Outline: as §1

[21] = test system: ECHCG; test: Post-emergence action at 320 g/ha against ECHCG; type: in vivo, Echinochloa crus-galli; details: dosage 320 g/ha, visual rating about 3 weeks after treatment vs untreated controls (100% = plants died)
Excerpt: (§4) Accordingly, the compounds of the invention have good herbicidal action against a broad spectrum of weed grasses and broad-leaved weeds and are therefore suitable for controlling unwanted vegetation by the post-emergence method. • b) Seeds of monocotyledonous and dicotyledonous weeds and crop plants are placed in sandy loam in plastic or organic planting pots, covered with soil and cultivated in a greenhouse under controlled growth conditions. 2 to 3 weeks after sowing, the test plants are treated at the one-leaf stage. The compounds of the invention, formulated in the form of wettable powders (WP) or as emulsion concentrates (EC), are then sprayed onto the green parts of the plants as aqueous suspension or emulsion with addition of 0.5% additive at a water application rate of 600 l/ha (converted). After the test plants have been kept in the greenhouse under optimum growth conditions for about 3 weeks, the activity of the preparations is rated visually in comparison to untreated controls. For example, 100% activity=the plants have died, 0% activity=like control plants. Tables 39 to 49 below show the effects of selected compounds of the general formula (I) according to Tables 1 and 2 on various harmful plants and at an application rate corresponding to 320 g/ha, which were obtained by the experimental procedure mentioned above.

[22] = test system: LOLRI; test: Pre-emergence action at 320 g/ha against LOLRI; type: in vivo, Lolium rigidum; details: visual scoring after about 3 weeks vs untreated controls
Outline: as §2

[23] = test system: VIOTR; test: Pre-emergence action at 320 g/ha against VIOTR; type: in vivo, Viola tricolor; details: dosage 320 g/ha
Outline: as §2

[24] = test system: ECHCG; test: Pre-emergence action against ECHCG, 1280 g/ha; type: in vivo, Echinochloa crus-galli; details: visual scoring after about 3 weeks vs untreated controls, 100% = plants have died, 0% = like control plants
Outline: as §1

[25] = test system: ABUTH; test: Post-emergence action against ABUTH, 1.28 kg/ha; type: in vivo, Abutilon theophrasti; details: dosage 1280 g/ha, visual rating about 3 weeks after treatment vs untreated controls (100% = plants died)
Outline: as §3

[26] = test system: AVEFA; test: Pre-emergence action at 320 g/ha against AVEFA; type: in vivo; details: visual scoring after about 3 weeks vs untreated controls
Outline: as §2

[27] = test system: SETVI; test: Post-emergence action at 320 g/ha against SETVI; type: in vivo, Setaria viridis; details: visual rating about 3 weeks after treatment vs untreated controls
Excerpt: as §4

[28] = test system: DIGSA; test: Pre-emergence action against DIGSA, 1280 g/ha; type: in vivo, Digitaria sanguinalis; details: visual scoring after about 3 weeks vs untreated controls, 100% = plants have died, 0% = like control plants
Outline: as §1

[29] = test system: ALOMY; test: Post-emergence action against ALOMY, 320 g/ha; type: in vivo, Alopecurus myosuroides; details: dosage 320 g/ha, visual rating about 3 weeks after treatment vs untreated controls (100% = plants died)
Excerpt: as §4

[30] = test system: STEME; test: Pre-emergence action against STEME, 1280 g/ha; type: in vivo, Stellaria media; details: scored visually after about 3 weeks vs untreated controls (100% = plants have died)
Outline: as §1

[31] = test system: DIGSA; test: Pre-emergence action at 320 g/ha against DIGSA; type: in vivo, Digitaria sanguinalis; details: visual scoring after about 3 weeks vs untreated controls
Outline: as §2

[32] = test system: MATIN; test: Pre-emergence action at 320 g/ha against MATIN; type: in vivo, Tripleurospermum inodorum (Matricaria inodora); details: visual scoring after about 3 weeks vs untreated controls
Outline: as §2

CCOC(=O)COc1nn(-c2ccccc2C)c(-c2ccc(F)nc2)c1Br [VII-056-a]
Pre-emergence action against LOLRI [1]: 90% | Pre-emergence action against AMARE [2]: 100% | Pre-emergence action against POLCO in % [3]: 90% | Pre-emergence action against SETVI [4]: 100% | Pre-emergence action against MATIN [5]: 100% | Post-emergence action against LOLRI [6]: 100% | Post-emergence action against MATIN [7]: 100% | Post-emergence action against SETVI [8]: 100% | Pre-emergence action against ALOMY [9]: 90% | Post-emergence action against AMARE [10]: 100% | Post-emergence action against ALOMY [11]: 100% | Pre-emergence action at 320 g/ha against ALOMY in % [12]: 100% | Post-emergence action against ECHCG [13]: 100% | Post-emergence action against VERPE [14]: 100% | Pre-emergence action against AMARE in % [15]: 100% | Pre-emergence action against VERPE in % [16]: 100% | Post-emergence action against POAAN [17]: 100% | Pre-emergence action against VERPE [18]: 100% | Post-emergence action against DIGSA [19]: 100% | Pre-emergence action against POAAN [20]: 100% | Post-emergence action at 320 g/ha against ECHCG in % [21]: 80% | Pre-emergence action against LOLRI in % [22]: 90% | Pre-emergence action against VIOTR in % [23]: 100% | Pre-emergence action against ECHCG [24]: 100% | Post-emergence action against ABUTH [25]: 90% | Pre-emergence action against AVEFA in % [26]: 90% | Post-emergence action against SETVI in % [27]: 80% | Pre-emergence action against DIGSA [28]: 100% | Post-emergence action against ALOMY [29]: 90% | Pre-emergence action against STEME [30]: 100% | Pre-emergence action against DIGSA in % [31]: 100% | Pre-emergence action against MATIN in % [32]: 80%
